According to paper PMC7766697, “Toxicological Screening of Four Bioactive Citroflavonoids: In Vitro, In Vivo, and In Silico Approaches” (Molecules, 2020):
Where “and” joins values, the source holds several entries; their conditions need not be identical. Equal entries are not always repeated. Where two headings read alike, the source gives them in different places.

Assays:
[1] = MTT-based cytotoxicity assay in VERO cells; type: cell-based, green Monkey; settings: green monkey, MTT
Method: (§1) VERO and MDCK cell lines were acquired from American Type Culture Collection (ATCC, Manassas, VA, USA). […] In vitro cytotoxicity assay was performed on Madin-Darby Canine Kidney Epithelial Cells (MDCK) and green Monkey Kidney Cells (VERO) by MTT-based assay. Briefly, cells were seeded in 96-well plates at a density of 2.5 × 10^3 cells/well. […] The absorbance was measured after 45 min using a microplate reader (Multiskan Asent®) at a wavelength of 550 nm. The criteria for categorizing cytotoxicity against MDCK and VERO cells are based on the U.S. National Cancer Institute (NCI). The criteria comprise as follow: […] All results were expressed as mean ± standard error. The results from the in vivo and in vitro experiments were analyzed using software Origin® 8.0. […] The IC50 (half inhibitory concentration) values were calculated in Origin software®, (Northampton, MA, USA) and one-way ANOVA analysis was compared with cisplatin as the control.

VERO cells = experiment: MTT-based cytotoxicity assay in VERO cells; type: cell-based, green Monkey; settings: 48 h, 125 to 750 µg/mL (QRT effect at 250–750 µg/mL)
Method: as §1

MDCK cells = experiment: MTT-based cytotoxicity assay in MDCK cells; type: cell-based, Canine; settings: 48 h, 125 to 750 µg/mL (QRT effect at 250 and 500 µg/mL)
Method: as §1

Wistar rats [2] = type: in vivo
Method: (§2) Rats used for this experiment were fasted for 8 h and were organized into two groups of three rats for each dose and each flavonoid. Likewise, the control group received isotonic 0.9% sodium chloride solution (dose: 5 mL/kg). All rats were closely observed for toxic symptoms and behavioral changes (sedation, hyperactivity, writhing, pruritus, feeding and drinking habits, general morphological changes, and bite legs) for 30 min and periodically 24 h post-administration. Animals were observed daily (14 days) and mortality rate recorded. A LD50 was estimated according to criteria of OECD guide 423.
The rats’ body weight in each group was determined and recorded before the treatment initiation and after 14 days. Changes in the body weight at the end of the 14 days were calculated. Once observation time was completed and to detect any adverse effect, blood samples were collected by cardiac puncture after the previous fasting of 8 h. For this purpose, rats were anesthetized by intraperitoneally 50 mg/kg sodium pentobarbital. The liver was carefully extracted, rinsed in normal saline, drained on blotting paper, and carefully examined for tissue lesions. In addition, organ weight was determined.
Rat blood samples were analyzed by a hematology auto-analyzer system (Sysmex XS-1000i®, SYSMEX®, Oak Ridge, TN, USA). The parameters quantified on this stage were: blood count-packed cell volume (PCV), red blood cell (RBC) count, hemoglobin (Hb), platelet count, white blood cell (WBC) count, mean cell hemoglobin concentration (MCHC), mean red cell volume (MCV), mean cell hemoglobin (MCH), prothrombin time (PT), and activated partial thromboplastin time (aPTT).

Wistar rats [3] = settings: rat, in vivo, po
Swiss-albino mice = settings: cited from earlier work
Wistar rats [4] = experiment: Acute oral toxicity, OECD Test No. 423 (mortality, signs, LD50, body weight); type: in vivo; settings: oral 300 and 2000 mg/kg, test days 2, 3, 9 and 10
Method: Female Wistar rats (250 g b.w.) were used. These animals were obtained from Bioterium from División de Ciencias de la Salud at the Universidad de Quintana Roo. They were maintained under standard environmental conditions (22 ± 3 °C, 12 h/12 h light/dark cycle), and free access to standard rodent diet and water ad libitum. All animal procedures were conducted under our Federal Regulations for Animal Experimentation and Care and were approved by the Institutional Animal Care and Use Committee of the “Universidad Juárez Autónoma de Tabasco” university (Code:2017-001, Approved: October 2017). Rats were acclimatized for 1 week before the start of experimental procedures.
The half lethal dose (LD50) was estimated using the fixed-dose method described in OECD Guidelines for the Testing of Chemicals (Test No. 423: Acute Oral Toxicity-Class Method; OECD, 2001). […] This method allowed a step-by-step assay according to the chosen dose to begin the experiment. Subsequently, depending on the presence or absence of mortality, the decision to continue within the next step is taken, so fewer experimental animals should be used.
as §2
The rats’ body weight in each group was determined and recorded before the treatment initiation and after 14 days. Changes in the body weight at the end of the 14 days were calculated. Once observation time was completed and to detect any adverse effect, blood samples were collected by cardiac puncture after the previous fasting of 8 h. […] In addition, organ weight was determined.

O=c1c(O)c(-c2ccc(O)c(O)c2)oc2cc(O)cc(O)c12 [QRT, Quercetin]
IC50 at 48 h [1]: 465 µM and 141 µg/mL | IC50 at 48 h ([1]; abstract, first value of 'respectively'): 219 ± 7.22 µM | percentage viability / growth of cells (VERO cells): produced a decrease in the percentage viability | percentage viability / growth of cells (MDCK cells): caused significant differences in the rate of cell viability | MCV (Wistar rats [2]): 56.45 ± 3.05 fL | PT (Wistar rats [2]): 16.20 ± 2.00 s | Platelets (Wistar rats [2]): 759.00±22.00 105/µL | RBCDW (Wistar rats [2]): 17.95±0.45% | APTT (Wistar rats [2]; rat, in vivo, po, 50 mg/kg): 14.55 ± 0.25 s | Hb (Wistar rats [2]; rat, in vivo, po, 50 mg/kg): 14.55 ± 0.65 g/dL | Hto (Wistar rats [2]; rat, in vivo, po, 50 mg/kg): 45.50±2.30% | Leukocytes (Wistar rats [2]; rat, in vivo, po, 50 mg/kg): 3.65±0.60 103/µL | MCH (Wistar rats [2]; rat, in vivo, po, 50 mg/kg): 18.05 ± 0.85 pg | APTT (Wistar rats [2]; rat, in vivo, po, 300 mg/kg): 15.75 ± 1.45 s | Erythrocytes (Wistar rats [2]; rat, in vivo, po, 300 mg/kg): 8.12±0.32 106/µL | Hb (Wistar rats [2]; rat, in vivo, po, 300 mg/kg): 14.67 ± 0.45 g/dL | Hto (Wistar rats [2]; rat, in vivo, po, 300 mg/kg): 45.73±1.15% | Leukocytes (Wistar rats [2]; rat, in vivo, po, 300 mg/kg): 4.21±0.38 103/µL | MCH (Wistar rats [2]; rat, in vivo, po, 300 mg/kg): 18.07 ± 0.20 pg | MCV (Wistar rats [2]; rat, in vivo, po, 300 mg/kg): 56.37 ± 0.90 fL | PT (Wistar rats [2]; rat, in vivo, po, 300 mg/kg): 16.00 ± 2.65 s | Platelets (Wistar rats [2]; rat, in vivo, po, 300 mg/kg): 665.00±125.33 105/µL | RBCDW (Wistar rats [2]; rat, in vivo, po, 300 mg/kg): 16.80±0.20% | ALB (albumin) (Wistar rats [3]; 50 mg/kg): 3.88 ± 0.04 g/dL | ALB/GL Ratio (Wistar rats [3]; 50 mg/kg): 1.56 ± 0.087 | GL (globulin) (Wistar rats [3]; 50 mg/kg): 2.50 ± 0.14 g/dL | GLU (glucose) (Wistar rats [3]; 50 mg/kg): 119.67 ± 8.74 mg/dL | IB (indirect bilirubin) (Wistar rats [3]; 50 mg/kg): 0.036 ± 0.003 mg/dL | TB (total bilirubin) (Wistar rats [3]; 50 mg/kg): 0.08 ± 0.006 mg/dL | TP (total protein) (Wistar rats [3]; 50 mg/kg): 6.38 ± 0.15 g/dL | ALB (albumin) (Wistar rats [3]; 300 mg/kg): 3.63 ± 0.09 g/dL | ALB/GL Ratio (Wistar rats [3]; 300 mg/kg): 1.39 ± 0.15 | DB (direct bilirubin) (Wistar rats [3]; 300 mg/kg): 0.016 ± 0.004 mg/dL | GL (globulin) (Wistar rats [3]; 300 mg/kg): 2.84 ± 0.16 g/dL | GLU (glucose) (Wistar rats [3]; 300 mg/kg): 149.49 ± 5.00 mg/dL | IB (indirect bilirubin) (Wistar rats [3]; 300 mg/kg): 0.030 ± 0.006 mg/dL | TB (total bilirubin) (Wistar rats [3]; 300 mg/kg): 0.05 ± 0.003 mg/dL | TP (total protein) (Wistar rats [3]; 300 mg/kg): 6.48 ± 0.065 g/dL | alkaline phosphatase (ALP) (Swiss-albino mice; 128 or 450 mg/kg orally for 14 days): increased | AST (Swiss-albino mice; higher dose, orally for 14 days): declined | bilirubin (Swiss-albino mice; only at 128 mg/kg, orally for 14 days): also increased

O=C1C[C@@H](c2ccc(O)cc2)Oc2cc(O)cc(O)c21 [NARGE, naringenin]
percentage viability / growth of cells (VERO cells): did not change the percentage of growth | percentage viability / growth of cells (MDCK cells): did not change the percentage of growth | rats' weight vs control (Wistar rats [4]): modifies rats’ weight | Erythrocytes (Wistar rats [2]; rat, in vivo, po, 300 mg/kg): 6.98±1.18 106/µL | Hb (Wistar rats [2]; rat, in vivo, po, 300 mg/kg): 12.00 ± 1.81 g/dL | Hto (Wistar rats [2]; rat, in vivo, po, 300 mg/kg): 36.76±5.31% | Leukocytes (Wistar rats [2]; rat, in vivo, po, 300 mg/kg): 5.31±0.74 103/µL | MCH (Wistar rats [2]; rat, in vivo, po, 300 mg/kg): 17.40 ± 0.39 pg | MCHC (Wistar rats [2]; rat, in vivo, po, 300 mg/kg): 32.53 ± 0.49 g/dL | MCV (Wistar rats [2]; rat, in vivo, po, 300 mg/kg): 53.46 ± 1.87 fL | Platelets (Wistar rats [2]; rat, in vivo, po, 300 mg/kg): 726.00±12.26 105/µL | RBCDW (Wistar rats [2]; rat, in vivo, po, 300 mg/kg): 17.80±1.89% | APTT (Wistar rats [2]; rat, in vivo, po, 2000 mg/kg): 26.26 ± 1.85 s | Erythrocytes (Wistar rats [2]; rat, in vivo, po, 2000 mg/kg): 8.03±0.29 106/µL | Hb (Wistar rats [2]; rat, in vivo, po, 2000 mg/kg): 14.23 ± 0.22 g/dL | Hto (Wistar rats [2]; rat, in vivo, po, 2000 mg/kg): 44.63±0.44% | Leukocytes (Wistar rats [2]; rat, in vivo, po, 2000 mg/kg): 5.57±1.20 103/µL | MCH (Wistar rats [2]; rat, in vivo, po, 2000 mg/kg): 18.05 ± 0.39 pg | MCHC (Wistar rats [2]; rat, in vivo, po, 2000 mg/kg): 31.25 ± 0.18 g/dL | MCV (Wistar rats [2]; rat, in vivo, po, 2000 mg/kg): 57.85 ± 1.59 fL | PT (Wistar rats [2]; rat, in vivo, po, 2000 mg/kg): 15.46 ± 0.71 s | RBCDW (Wistar rats [2]; rat, in vivo, po, 2000 mg/kg): 18.93±0.14% | ALB (albumin) (Wistar rats [3]; 300 mg/kg): 3.86 ± 0.10 g/dL | ALB/GL Ratio (Wistar rats [3]; 300 mg/kg): 1.26 ± 0.08 | ALT (Wistar rats [3]; 300 mg/kg): 39.19 ± 0.77 IU/L | AST (Wistar rats [3]; 300 mg/kg): 156.06 ± 9.33 IU/L | DB (direct bilirubin) (Wistar rats [3]; 300 mg/kg): 0.013 ± 0.007 mg/dL | GL (globulin) (Wistar rats [3]; 300 mg/kg): 3.11 ± 0.25 g/dL | GLU (glucose) (Wistar rats [3]; 300 mg/kg): 145.29 ± 5.47 mg/dL | IB (indirect bilirubin) (Wistar rats [3]; 300 mg/kg): 0.051 ± 0.007 mg/dL | TB (total bilirubin) (Wistar rats [3]; 300 mg/kg): 0.064 ± 0.005 mg/dL | TP (total protein) (Wistar rats [3]; 300 mg/kg): 6.97 ± 0.30 g/dL | ALB (albumin) (Wistar rats [3]; 2000 mg/kg): 4.74 ± 0.16 g/dL | ALB/GL Ratio (Wistar rats [3]; 2000 mg/kg): 1.56 ± 0.14 | ALT (Wistar rats [3]; 2000 mg/kg): 57.68 ± 10.97 IU/L | AST (Wistar rats [3]; 2000 mg/kg): 149.37 ± 7.16 IU/L | DB (direct bilirubin) (Wistar rats [3]; 2000 mg/kg): 0.020 ± 0.001 mg/dL | GL (globulin) (Wistar rats [3]; 2000 mg/kg): 3.08 ± 0.17 g/dL | GLU (glucose) (Wistar rats [3]; 2000 mg/kg): 175.56 ± 6.80 mg/dL | IB (indirect bilirubin) (Wistar rats [3]; 2000 mg/kg): 0.045 ± 0.060 mg/dL | TB (total bilirubin) (Wistar rats [3]; 2000 mg/kg): 0.065 ± 0.007 mg/dL | TP (total protein) (Wistar rats [3]; 2000 mg/kg): 7.82 ± 0.07 g/dL
